{"source": "patent US4636464A", "about": "(priority 1985, dated 1987)", "type_in_all_cases": "biochemical, Coriolus versicolor", "key": {"[1]": {"molecular_target": "T1, pyranose oxidase (Trametes versicolor, UniProt P79076)", "T1 construct": "made in house; not recombinant", "assay": "Electron acceptor test (Thunberg tube, absorbancy change)", "method": "In this phase, 1.4 ml of 50 mM tris-hydrochloride buffer (pH 7.0), 0.1 ml of 250 mU enzyme solution and 0.5 ml of electron acceptor solutions having various concentrations as indicated in Table 2 are put into a cell with Thunberg tube. […] The change in absorbancy per minute from 30 minutes to 90 minutes after the mixturing is determined and the activities of the electron acceptors are expressed as relative activity."}, "[2]": {"molecular_target": "T1, pyranose oxidase", "conditions": "for Percent Inhibition (%): 0.2 ml of 18.5 mM inhibitor solution, 280 mU pyranose oxidase, pH 7.0, 37° C.", "source_text": "The inhibitor is studied in the same manner as that adopted in determination of the optimum pH."}, "[3]": {"molecular_target": "T1, pyranose oxidase", "assay": "biochemical", "design": "activity: dose or concentration left out as unconfirmed", "conditions": "for activity: pH 7, read-out: Relative Activity (%); for activity at 100000 µM: pH 7, read-out: Relative Activity (%); for Substrate specificity in words: same test as Table 1", "method": "Said coloring reagent is prepared by adding 0.1M tris-hydrochloride buffer (pH 7.0) containing 10 m mol/l 4-aminoantipyrine(hereinafter referred to as 4AA) and 10 m mol/l phenol, to peroxidase in a concentration of 2000 U per 100 ml of the buffer. The increasing rate of the absorbancy at 500 nm is automatically measured on a spectrophotometer. The molecular extinction coefficient of a quinoneimine pigment formed under these conditions is defined as 5.3×10^3, and one unit of the enzymatic activity is also defined as the amount of the enzyme that produces one μ mole of hydrogen peroxide per minute at a temperature of 37° C. and at a pH of 7.0.\nThe results are expressed as percentages of the glucose reaction."}, "[4]": {"conditions": "electron acceptor solution 0.1 mM, pH 7.0, dissolved oxygen removed, read-out: Relative Activity (%)"}, "[5]": {"conditions": "electron acceptor solution 0.1 mM, pH 7.0, dissolved oxygen removed"}}}
{"compound": "O=O", "note": "[Oxygen]", "values": [{"measurement": "Suitability as electron acceptor in words", "setting": "[1]", "value": "optimum electron acceptor"}, {"measurement": "Relative Activity (%)", "setting": "[1]; electron acceptor: dissolved oxygen, pH 7.0, glucose substrate", "value": 100, "unit": "%"}]}
{"compound": "NC(=O)c1ccc[n+]([C@@H]2O[C@H](COP(=O)([O-])OP(=O)(O)OC[C@H]3O[C@@H](n4cnc5c(N)ncnc54)[C@H](OP(=O)(O)O)[C@@H]3O)[C@@H](O)[C@H]2O)c1", "note": "[Nicotinamide-adenine dinucleotide phosphate]", "values": [{"measurement": "activity at 100 µM (stock)", "setting": "[1]; [4]", "value": 0, "unit": "%"}]}
{"compound": "O=[N+]([O-])[O-].[Ag+]", "note": "[silver nitrate]", "values": [{"measurement": "Inhibition of the enzymatic action in words", "setting": "[2]", "value": "inhibited"}, {"measurement": "Percent Inhibition (%)", "setting": "[2]", "value": 53.3, "unit": "%"}]}
{"compound": "N[C@H]1C(O)O[C@H](CO)[C@@H](O)[C@@H]1O", "note": "(stereo partly shown) [glucosamine]", "values": [{"measurement": "activity", "setting": "[3]", "value": 0, "unit": "%"}]}
{"compound": "OC[C@H]1O[C@H](O[C@H]2O[C@H](CO)[C@@H](O)[C@H](O)[C@H]2O)[C@H](O)[C@@H](O)[C@@H]1O", "note": "[trehalose]", "values": [{"measurement": "activity", "setting": "[3]", "value": 0, "unit": "%"}]}
{"compound": "O=S(=O)([O-])[O-].[Cu+2]", "note": "[copper sulfate]", "values": [{"measurement": "Inhibition of the enzymatic action in words", "setting": "[2]", "value": "inhibited"}, {"measurement": "Percent Inhibition (%)", "setting": "[2]", "value": 35.7, "unit": "%"}]}
{"compound": "Cytochrome C", "values": [{"measurement": "Suitability as electron acceptor in words", "setting": "[1]", "value": "may be made electron acceptor"}, {"measurement": "Relative Activity (%)", "setting": "[1]; [5]", "value": 0.33, "unit": "%"}]}
{"compound": "OC[C@@H](O)[C@@H](O)[C@H](O)[C@H](O)CO", "note": "[mannitol]", "values": [{"measurement": "activity", "setting": "[3]", "value": 0, "unit": "%"}]}
{"compound": "OC[C@H]1O[C@H](O[C@H]2[C@H](O)[C@@H](O)[C@H](O)O[C@@H]2CO)[C@H](O)[C@@H](O)[C@@H]1O", "note": "[maltose]", "values": [{"measurement": "activity", "setting": "[3]", "value": 0, "unit": "%"}]}
{"compound": "O=C(O)[C@H](O)[C@@H](O)[C@H](O)[C@H](O)CO", "note": "[gluconic acid]", "values": [{"measurement": "activity", "setting": "[3]", "value": 0, "unit": "%"}]}
{"compound": "O=C(CO)[C@H](O)[C@@H](O)[C@H](O)CO", "note": "[sorbose]", "values": [{"measurement": "activity at 100000 µM", "setting": "[3]", "value": 3.4, "unit": "%"}, {"measurement": "Substrate specificity in words", "setting": "[3]", "value": "acts upon"}]}
{"compound": "O=S(=O)([O-])[O-].[Mg+2]", "note": "[magnesium sulfate]", "values": [{"measurement": "Percent Inhibition (%)", "setting": "[2]", "value": 0, "unit": "%"}]}
{"compound": "OC1OC[C@@H](O)[C@H](O)[C@H]1O", "note": "(stereo partly shown) [xylose]", "values": [{"measurement": "activity", "setting": "[3]", "value": 2.6, "unit": "%"}, {"measurement": "Substrate specificity in words", "setting": "[3]", "value": "acts upon"}]}
{"compound": "O=S(=O)([O-])[O-].[Co+2]", "note": "[cobalt sulfate]", "values": [{"measurement": "Percent Inhibition (%)", "setting": "[2]", "value": 13.3, "unit": "%"}]}
{"compound": "NC(=O)c1ccc[n+]([C@@H]2O[C@H](COP(=O)([O-])OP(=O)(O)OC[C@H]3O[C@@H](n4cnc5c(N)ncnc54)[C@H](O)[C@@H]3O)[C@@H](O)[C@H]2O)c1", "note": "[Nicotinamide-adenine dinucleotide]", "values": [{"measurement": "activity at 100 µM (stock)", "setting": "[1]; [4]", "value": 0, "unit": "%"}]}
{"compound": "O=C1C(Cl)=CC(=Nc2ccc(O)cc2)C=C1Cl", "note": "[2,6-Dichlorophenolindophenol]", "values": [{"measurement": "Suitability as electron acceptor in words", "setting": "[1]", "value": "may be made electron acceptor"}, {"measurement": "activity at 40 µM (stock)", "setting": "[1]; electron acceptor solution 0.04 mM, pH 7.0, dissolved oxygen removed, read-out: Relative Activity (%)", "value": 2.5, "unit": "%"}]}
{"compound": "O=C(CO)[C@@H](O)[C@H](O)[C@H](O)CO", "note": "[fructose]", "values": [{"measurement": "activity at 100000 µM", "setting": "[3]", "value": 0, "unit": "%"}]}
{"compound": "Nitroprusside-tetrazolium", "values": [{"measurement": "Relative Activity (%)", "setting": "[1]; [5]", "value": 0, "unit": "%"}]}
{"compound": "O=C(O)c1cc[c]([Hg][Cl])cc1", "note": "[p-chloromercuribenzoate]", "values": [{"measurement": "Inhibition of the enzymatic action in words", "setting": "[2]", "value": "inhibited"}, {"measurement": "Percent Inhibition (%)", "setting": "[2]", "value": 50.0, "unit": "%"}]}
{"compound": "OC[C@H]1O[C@@H](O[C@H]2[C@H](O)[C@@H](O)C(O)O[C@@H]2CO)[C@H](O)[C@@H](O)[C@H]1O", "note": "(stereo partly shown) [lactose]", "values": [{"measurement": "activity", "setting": "[3]", "value": 0, "unit": "%"}]}
